Laboratory results reported in publication PMC10218704, “A Novel Blood–Brain Barrier-Penetrating and Vascular-Targeting Chimeric Peptide Inhibits Glioma Angiogenesis” (International Journal of Molecular Sciences, 2023).
Ends that are not written are not given here.

Assays:
HUVECs [1] = experiment: Transwell invasion assay; type: cell-based, human; conditions: 160 μmol/L; VEGF-A165 30 ng/mL; 24 h; n = 3
Experimental: Matrigel was diluted in serum-free F-12K medium (dilution ratio 1:5) and was coated onto each transwell chamber and incubated at 37 °C for 2 h. HUVECs were seeded in the upper compartment of the transwell chamber at a density of 2 × 10^4 cells/well. F-12K medium (containing 20% serum) was added to the lower chamber. […] Then, the medium was aspirated, and the chambers were washed with PBS and placed in a fixative for 30 min, stained with 0.1% crystal violet for 30 min, washed with PBS, and dried. An inverted fluorescence microscope was used to photograph the chambers, and the number of invaded cells was counted. The cells that migrated to the bottom of the chamber were photographed with an inverted microscope.

[2] = tested on: U87-mCherry-luc glioma tissue; experiment: TUNEL staining of glioma tissue; type: in vivo, nude mice; conditions: 20 mg/kg/day i.v., 11 days; tissue at day 15; n = 3
Experimental: (§1) The orthotopic U87-mCherry-luc glioma-bearing nude mice were randomly assigned to 6 groups (n = 5) according to the bioluminescence intensity of glioma measured on day 4. […] The bioluminescence intensity was measured on days 4, 7, 11, and 14, respectively. Nude mice were weighed daily. On day 15, the mice were sacrificed, and the glioma-bearing brains were harvested. The brain tissues were fixed with 4.0% paraformaldehyde, embedded in paraffin, and cut into slices. The TUNEL staining and CD31 immunohistochemical staining were conducted according to standard histological procedures.

PLC-γ = experiment: Western blot, phosphorylation of PLC-γ; type: cell-based, human; conditions: 320 μmol/L, 90 min, VEGF-A165 30 ng/mL, HUVECs, vs control, AT7, TAT, n = 3
Experimental: (§2) For Western blotting analysis, HUVECs were seeded into 6-well culture plates at 3 × 10^5 cells/well and incubated overnight. […] Two control groups (F-12K medium in the absence or presence of VEGF-A165) were set. The cells were washed with cold PBS and lysed with lysis buffer (protease and phosphatase inhibitors) on the ice for 30 min, and then centrifuged at 4 °C for 15 min at 14,000 r/min. The supernatant was collected, and its total protein concentration was determined by the BCA protein assay kit. Equal amounts of proteins were separated by 10% SDS-PAGE gels and transferred to polyvinylidene difluoride (PVDF) membranes. After blocking with 5% non-fat milk for 1 h, the membranes were incubated with specific antibodies at 4 °C overnight. Then, the membranes were washed with TBST (Tris-Buffered Saline with 0.1% Tween 20) and incubated with horseradish peroxidase (HRP)-conjugated secondary antibody for 1 h at room temperature. The proteins on the membranes were visualized with enhanced chemiluminescence agents.

AKT = experiment: Western blot, phosphorylation of AKT; type: cell-based, human; conditions: 320 μmol/L, 90 min, VEGF-A165 30 ng/mL, HUVECs, vs control, AT7, TAT, n = 3
Experimental: as §2

HUVECs [3] = experiment: Cell proliferation assay (MTT); type: cell-based, human; conditions: 48 h, VEGF-A165 30 ng/mL, n = 3
Experimental: The anti-proliferative effect was evaluated by the MTT assay.
Briefly, HUVECs were seeded into 96-well plates (5 × 10^3 cells/well) and allowed to attach overnight. […] Then, 20 µL of MTT solution was added to each well and further cultured for 4 h under dark conditions. After removing the medium, 150 µL of DMSO was added to dissolve formazan crystals. The 96-well plates were shaken at a low speed for 10 min. The absorbance was measured at 490 nm using a Microplate Reader (Bio-Rad 680, Hercules, CA, USA).

[4] = tested on: glioma blood vessels (CD31); experiment: CD31 immunohistochemical staining of glioma tissue (blood vessel density); type: in vivo, nude mice; conditions: 20 mg/kg/day i.v., 11 days; tissue at day 15; n = 3
Experimental: as §1

ERK1/2 = experiment: Western blot, phosphorylation of ERK1/2; type: cell-based, human; conditions: 320 μmol/L, 90 min, VEGF-A165 30 ng/mL, HUVECs, vs control, AT7, TAT, n = 3
Experimental: as §2

FAK = experiment: Western blot, phosphorylation of FAK; type: cell-based, human; conditions: 320 μmol/L, 90 min, VEGF-A165 30 ng/mL, HUVECs, vs control, AT7, TAT, n = 3
Experimental: as §2

[5] = tested on: VEGFR-2 and the above kinases (PLC-γ, ERK1/2, SRC, AKT, FAK); experiment: Western blot, total expression levels; type: cell-based, human; conditions: 320 μmol/L; 90 min; VEGF-A165 30 ng/mL; HUVECs; n = 3
Experimental: as §2

[6] = tested on: VEGF-induced rabbit corneal angiogenesis; conditions: cited from earlier work
Source text: Most peptides and proteins are usually functional and efficacious signaling molecules that naturally exist or are synthesized by artificial methods. Compared with proteins, peptides have higher tissue permeability, protease hydrolysis tolerability, and lower production costs. Furthermore, the pharmacological functions of peptides are easier to be improved by modification strategies, whereas their intrinsic properties are rarely affected. […] ATWLPPR (AT7), which was identified by a mutated phage lib ...

Row | Molecule | invasion rate (HUVECs [1]) | number of apoptotic cells (TUNEL) [2] | phosphorylation level of PLC-γ (PLC-γ) | phosphorylation level of AKT (AKT) | inhibition rate on HUVECs' proliferation (HUVECs [3]; 320 μmol/L, MTT, 490 nm) | inhibition of HUVECs' proliferation (HUVECs [3]; 20-320 μmol/L, MTT) | inhibition rate compared with AT7, TAT, TAT+AT7 (HUVECs [3]; concentration higher than 40 μmol/L) | blood vessel density (CD31) [4] | phosphorylation level of ERK1/2 (ERK1/2) | phosphorylation level of FAK (FAK) | total expression levels of VEGFR-2 and the above kinases [5] | effect on VEGF-induced rabbit corneal angiogenesis [6]
1 | CC(C)C[C@H](NC(=O)[C@H](Cc1c[nH]c2ccccc12)NC(=O)[C@@H](NC(=O)[C@H](C)NC(=O)[C@H](CS)NC(=O)[C@H](CCCNC(=N)N)NC(=O)[C@H](CCCNC(=N)N)NC(=O)[C@H](CCCNC(=N)N)NC(=O)[C@H](CCC(N)=O)NC(=O)[C@H](CCCNC(=N)N)NC(=O)[C@H](CCCNC(=N)N)NC(=O)[C@H](CCCCN)NC(=O)[C@H](CCCCN)NC(=O)[C@@H](N)CCCNC(=N)N)[C@@H](C)O)C(=O)N1CCC[C@H]1C(=O)N1CCC[C@H]1C(=O)N[C@@H](CCCNC(=N)N)C(=O)O [TAT-AT7] | significantly lower than that of the other groups | significantly higher than that in the saline, AT7, TAT, and TAT+AT7 groups | significantly inhibited the phosphorylation level | significantly inhibited the phosphorylation level | more than 50% | significantly inhibit proliferation of HUVECs in a concentration-dependent manner | significantly higher than that of the AT7, TAT, and TAT+AT7 groups | significantly lower than that in the other groups | significantly inhibited the phosphorylation level | significantly inhibited the phosphorylation level | no significant effect on the total expression levels | 
2 | ATWLPPR [AT7, ATWLPPR] |  |  |  |  |  |  |  |  |  |  |  | inhibitory effect on VEGF-induced rabbit corneal angiogenesis
